We go through four molecules from patent US5792831A, “Analogues of magainin peptides containing D-amino acids” (priority 1994, dated 1998).

Type in all cases: cell-based
For assay [1], the system named is melanoma cell line WM1985. Description: Melanoma growth reduction (Example 5). To be noted: PF media. The procedure:
(§1) Melanoma cell lines WM-239-A (metastatic melanoma), WM278 (primary melanoma), WM793 (primary melanoma) and WM1158 (metastatic melanoma) were seeded in 24-well plates at a concentration of 7.5×10^4 cells/ml containing 2% tumor medium.
(§2) Peptides (SEQ ID NO:6) and D-(SEQ ID NO:6), in which each amino acid residue is a D-amino residue or a glycine residue, were frozen at -20° C. in […] aliquots at a concentration of 25 mg/ml. Each peptide was then dissolved in sterile distilled water at a dilution of 1:1,000 or 1:5,000 to provide peptide concentrations of 25 μg/ml or 5 μg/ml, respectively. The peptides at the 25 μg/ml or 5 μg/ml concentrations were then added to the plates containing the melanoma cells. The amount of ^3 H-thymidine incorporation for each well was taken on days 1, 3, and 7.
(§3) Peptides (SEQ ID NO:10) and D-(SEQ ID NO:10), in which each amino acid is a D-amino acid residue, are tested for % growth reduction of melanoma cell lines WM852 (grown in 2% tumor media or PF media), WM983A (grown in 2% tumor media or PF media), WM793 (grown in 2% tumor media), and WM1985 (grown in PF media) according to the procedure of Example 4, except that only a concentration of 25 μg/ml was employed for (SEQ ID NO:10), and concentrations of 1.0, 2.5, 5.0, 10.0, and 25.0 μg/ml were employed for D-(SEQ ID NO:10).

Assay [2] concerns melanoma cell line WM852. Briefly: Melanoma growth reduction (Example 5). To be noted: for % Growth Reduction (7 days) WM852-2%: 2% tumor media; for % Growth Reduction (7 days) WM852-PF: PF media. How it is done:
as §1, §2, §3

Assay [3] concerns melanoma cell line WM983A. Description: Melanoma growth reduction (Example 5). To be noted: for % Growth Reduction (7 days) WM-983A-2%: 2% tumor media; for % Growth Reduction (7 days) WM983A-PF: PF media. The procedure: as §1, §2, §3
The test system of assay [4] is melanoma cell line WM793. Briefly: Melanoma growth reduction (Example 5). To be noted: 2% tumor media. The procedure: as §1, §2, §3
The test system of assay [5] is melanoma cell line WM35. Description: 3H-thymidine radioactive counts, melanoma cells (Example 6). To be noted: 2% tumor media.
The subject of assay [6] is melanoma cell line WM239A. Described as above. To be noted: 2% tumor media.
Assay [7] relates to melanoma cell line WM115. The description is as above. The settings on record: 2% tumor media.
Assay [8] has as its system melanoma cell line WM852. Described as above. To be noted: 2% tumor media.
Assay [9] deals with melanoma cell line WM164. Described as above. To be noted: 2% tumor media.
Assay [10] has as its system melanoma cell line WM1791A. The assay is described as above. To be noted: 2% tumor media.
The test system of assay [11] is melanoma cell line WM1366. Described as above. The settings on record: 2% tumor media.
Assay [12] has as its system melanoma cell line SkMe123. The description is as above. To be noted: 2% tumor media.
The subject of assay [13] is melanoma cell line WM8. The assay is described as above. The settings on record: 2% tumor media.
The test system of assay [14] is melanoma cell line WM902B. The description is as above. To be noted: 2% tumor media.
Assay [15] deals with melanoma cell line WM973. The assay is described as above. The settings on record: 2% tumor media.
In assay [16] the test system is WM-239-A (metastatic melanoma). Briefly: Melanoma growth reduction, 3H-thymidine incorporation (Example 4). The settings on record: 2% tumor medium. The procedure: as §1, §2
For orientation: Dividing cells build labelled thymidine or BrdU into new DNA.

For assay [17], the system named is WM1158 (metastatic melanoma). The assay is described as above. To be noted: 2% tumor medium. How it is done:
as §1, §2

Assay [18] has as its system WM278 (primary melanoma). The assay is described as above. The settings on record: 2% tumor medium. The procedure:
as §1, §2

The test system of assay [19] is WM793 (primary melanoma). The description is as above. To be noted: 2% tumor medium. How it is done: as §1, §2
The test system of assay [20] is melanoma cell line WM983B. Briefly: 3H-thymidine radioactive counts, melanoma cells (Example 6). To be noted: 2% tumor media.
The subject of assay [21] is melanoma cell line WM1158. The assay is described as above. To be noted: 2% tumor media.
For assay [22], the system named is melanoma cell line WM39. The assay is described as above. To be noted: 2% tumor media.
Assay [23] concerns melanoma cell line WM983A. The description is as above. To be noted: 2% tumor media.

Square brackets hold non-standard residues; d marks the D form. Ends that are not written are not given here. Peptide text beside a SMILES is read from it.

Take “(SEQ ID NO:10): peptide of SEQ ID NO:10, comparator not marked D; possibly the same as (SEQ ID NO:10)-NH2 (KKLLKKLKKLLKKL; not fully specified) [reference compound]”: in [1] (dose 25 μg/ml), the “% Growth Reduction (7 days) WM1985-PF” value was found to be 43.0%. Besides, in assay [2] (dose 25 μg/ml), the “% Growth Reduction (7 days) WM852-2%” value is 0% and the “% Growth Reduction (7 days) WM852-PF” value is 54.0%. In assay [3] (dose 25 μg/ml), the “% Growth Reduction (7 days) WM-983A-2%” value is on record as 0% and the “% Growth Reduction (7 days) WM983A-PF” value came out at 60.5%. The “% Growth Reduction (7 days) WM793-2%” value in assay [4] (dose 25 μg/ml) is 8.3%.
“D-(SEQ ID NO:6): each amino acid residue is a D-amino residue or a glycine residue; possibly the same as D-(SEQ ID NO:6)-NH2 (G[dI]G[dK][dF][dL][dK][dS][dA][dK][dK][dF]G[dK][dA][dF][dV][dK][dI][dL][dN][dS]; not fully specified)”: the entries for the “Radioactive Counts WM35” value in assay [5] (dose 1 μg/ml), in assay [5] (dose 5 μg/ml) and in assay [5] (dose 25 μg/ml) were 47241, 3187 and 360, respectively. Further, the “Radioactive Counts WM239A” value stood at 38053 in assay [6] (dose 1 μg/ml), 221 in assay [6] (dose 5 μg/ml) and 459 in assay [6] (dose 25 μg/ml). The “Radioactive Counts WM115” value in assay [7] (dose 1 μg/ml) turned out to be 222000; in assay [7] (dose 5 μg/ml), 373; in [7] (dose 25 μg/ml) it was 263. In addition, the “Radioactive Counts WM852” value in [8] (dose 1 μg/ml) is recorded as 169000; in [8] (dose 5 μg/ml), 2699; in [8] (dose 25 μg/ml), 554. The “Radioactive Counts WM164” value was 158000 in [9] (dose 1 μg/ml), 4143 in [9] (dose 5 μg/ml) and 331 in [9] (dose 25 μg/ml). Further, the “Radioactive Counts WM1791A” value is reported as 5655 in assay [10] (dose 1 μg/ml), 1065 in [10] (dose 5 μg/ml) and 456 in [10] (dose 25 μg/ml). Moreover, the “Radioactive Counts WM1366” value was 288000 in assay [11] (dose 1 μg/ml), 1910 in assay [11] (dose 5 μg/ml) and 1692 in assay [11] (dose 25 μg/ml). Besides, the entries for the “Radioactive Counts SkMe123” value in [12] (dose 1 μg/ml), in assay [12] (dose 5 μg/ml) and in assay [12] (dose 25 μg/ml) were 114846, 2028 and 429, respectively. Further, the “Radioactive Counts WM8” value in [13] (dose 1 μg/ml) came out at 19226; in [13] (dose 5 μg/ml) it was 248; in assay [13] (dose 25 μg/ml), 99. Moreover, the “Radioactive Counts WM902B” value came to 49299 in assay [14] (dose 1 μg/ml), 150 in [14] (dose 5 μg/ml) and 75 in [14] (dose 25 μg/ml). Also, the “Radioactive Counts WM973” value in assay [15] (dose 1 μg/ml) is 81675; in [15] (dose 5 μg/ml), 7284; in assay [15] (dose 25 μg/ml), 770. Besides, the entries for the “% Growth Reduction (7 days) WM239-A” value in assay [16] (dose 5 μg/ml) and in assay [16] (dose 25 μg/ml) were 82.0% and 96.3%, respectively. Also, the “% Growth Reduction (7 days) WM1158” value in assay [17] (dose 5 μg/ml) amounted to 98.0%; in assay [17] (dose 25 μg/ml), 98.8%. In addition, the “% Growth Reduction (7 days) WM-278” value in assay [18] (dose 5 μg/ml) came to 93.1%; in [18] (dose 25 μg/ml) it was 96.1%. Besides, the results for the “% Growth Reduction (7 days) WM793” value in assay [19] (dose 5 μg/ml) and in assay [19] (dose 25 μg/ml) were 95.6% and 98.4%, respectively. The “Radioactive Counts WM983B” value is given as 225000 in assay [20] (dose 1 μg/ml), 135 in assay [20] (dose 5 μg/ml) and 115 in [20] (dose 25 μg/ml). Further, the entries for the “Radioactive Counts WM1158” value in [21] (dose 1 μg/ml), in assay [21] (dose 5 μg/ml) and in [21] (dose 25 μg/ml) were 131000, 884 and 2108, respectively. The “Radioactive Counts WM39” value in [22] (dose 1 μg/ml) was determined as 27635; in assay [22] (dose 5 μg/ml), 1308; in [22] (dose 25 μg/ml) it was 273. Moreover, the “Radioactive Counts WM983A” value was determined as 335000 in assay [23] (dose 1 μg/ml), 5598 in assay [23] (dose 5 μg/ml) and 313 in assay [23] (dose 25 μg/ml).
Turning to “(SEQ ID NO:6): peptide of SEQ ID NO:6, comparator not marked D; possibly the same as (SEQ ID NO:6)-NH2 (GIGKFLKSAKKFGKAFVKILNS; not fully specified) [reference compound]”, the “% Growth Reduction (7 days) WM239-A” value in [16] (dose 5 μg/ml) turned out to be 0%; in assay [16] (dose 25 μg/ml) it was 95.8%. Further, the “% Growth Reduction (7 days) WM1158” value in [17] (dose 5 μg/ml) came out at 0%; in [17] (dose 25 μg/ml) it was 98.5%. In addition, the figures for the “% Growth Reduction (7 days) WM-278” value in assay [18] (dose 5 μg/ml) and in assay [18] (dose 25 μg/ml) were 0% and 96.0%, respectively. In addition, the “% Growth Reduction (7 days) WM793” value in [19] (dose 5 μg/ml) stood at 11.6%; in assay [19] (dose 25 μg/ml) it was 98.0%.
Regarding `CC(C)C[C@@H](NC(=O)[C@@H](CCCCN)NC(=O)[C@@H](CCCCN)NC(=O)[C@@H](CC(C)C)NC(=O)[C@@H](CC(C)C)NC(=O)[C@@H](CCCCN)NC(=O)[C@@H](CCCCN)NC(=O)[C@@H](CC(C)C)NC(=O)[C@@H](CCCCN)NC(=O)[C@@H](CCCCN)NC(=O)[C@@H](CC(C)C)NC(=O)[C@@H](CC(C)C)NC(=O)[C@@H](CCCCN)NC(=O)[C@H](N)CCCCN)C(N)=O` [D-(SEQ ID NO:10)] (H-[dK][dK][dL][dL][dK][dK][dL][dK][dK][dL][dL][dK][dK][dL]-NH2), the “% Growth Reduction (7 days) WM1985-PF” value is listed as 5.5% in [1] (dose 1.0 μg/ml); 23.6% in assay [1] (dose 2.5 μg/ml); 52.1% in [1] (dose 5.0 μg/ml); 84.3% in assay [1] (dose 10.0 μg/ml); 92.6% in assay [1] (dose 25 μg/ml). In addition, the “% Growth Reduction (7 days) WM852-2%” value in assay [2] (dose 1.0 μg/ml) is reported as 3.0%; in assay [2] (dose 2.5 μg/ml), 5.4%; in [2] (dose 5.0 μg/ml), 8.8%; in [2] (dose 10.0 μg/ml), 16.2%; in assay [2] (dose 25 μg/ml) it was 84.7%. Moreover, the “% Growth Reduction (7 days) WM852-PF” value in assay [2] (dose 1.0 μg/ml) is given as 2.9%; in assay [2] (dose 2.5 μg/ml), 22.9%; in [2] (dose 5.0 μg/ml), 32.4%; in [2] (dose 10.0 μg/ml) it was 80.6%; in assay [2] (dose 25 μg/ml), 91.1%. Also, the “% Growth Reduction (7 days) WM-983A-2%” value in assay [3] (dose 1.0 μg/ml) was found to be 0%; in assay [3] (dose 2.5 μg/ml), 0%; in assay [3] (dose 5.0 μg/ml) it was 0%; in assay [3] (dose 10.0 μg/ml) it was 13.8%; in assay [3] (dose 25 μg/ml), 71.3%. Also, the “% Growth Reduction (7 days) WM983A-PF” value in [3] (dose 1.0 μg/ml) is 3.3%; in [3] (dose 2.5 μg/ml), 13.9%; in assay [3] (dose 5.0 μg/ml), 29.8%; in assay [3] (dose 10.0 μg/ml) it was 84.9%; in assay [3] (dose 25 μg/ml) it was 90.0%. Also, the “% Growth Reduction (7 days) WM793-2%” value is recorded as 18.2% in [4] (dose 2.5 μg/ml), 0% in assay [4] (dose 5.0 μg/ml), 12.3% in assay [4] (dose 10.0 μg/ml) and 84.9% in assay [4] (dose 25 μg/ml).
